Source: ChEMBL document CHEMBL1201862, “PubChem BioAssay data set” (2004)
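How tested: cells in 96-well plates exposed to compound for 48 hours at five concentrations. Abbreviation: GI50, concentration required for 50% inhibition of growth.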 Activity calls are given as the source filed them. Rule as the data show it: active = GI50 up to about 1.1 µM and inactive = higher.

Key:
Experiment in all cases: growth of human tumour cells (NCI), 48 h
SW-620 = test system: SW-620
HCT-116 = test system: HCT-116
A498 = test system: A498
SNB-19 = test system: SNB-19
MDA-MB-435 = test system: MDA-MB-435
HT-29 = test system: HT-29
K562 = test system: K562
HL-60 = test system: HL-60
U-251 = test system: U-251
SK-OV-3 = test system: SK-OV-3
OVCAR-4 = test system: OVCAR-4
M14 = test system: M14
SF-295 = test system: SF-295
NCI/ADR-RES = test system: NCI/ADR-RES
BT-549 = test system: BT-549
HCT-15 = test system: HCT-15
NCI-H522 = test system: NCI-H522
Malme-3M = test system: Malme-3M
UACC-62 = test system: UACC-62
COLO 205 = test system: COLO 205

Structure (SMILES)	GI50 (SW-620)	GI50 (HCT-116)	GI50 (A498)	GI50 (SNB-19)	GI50 (MDA-MB-435)	GI50 (HT-29)	GI50 (K562)	GI50 (HL-60)	GI50 (U-251)	GI50 (SK-OV-3)	GI50 (OVCAR-4)	GI50 (M14)	GI50 (SF-295)	GI50 (NCI/ADR-RES)	GI50 (BT-549)	GI50 (HCT-15)	GI50 (NCI-H522)	GI50 (Malme-3M)	GI50 (UACC-62)	GI50 (COLO 205)
Cn1c(N/N=C/c2ccc(Cl)cc2)nc(-c2ccc(Cl)cc2)c(C#N)c1=O	31 µM (inactive)	13.5 µM (inactive)	32.1 µM (inactive)	> 100 µM (inactive)	29.9 µM (inactive)	41.1 µM (inactive)	> 100 µM (inactive)	44.7 µM (inactive)	29.9 µM (inactive)	> 100 µM (inactive)	23.8 µM (inactive)	20 µM (inactive)	17.5 µM (inactive)	> 100 µM (inactive)	21.8 µM (inactive)	31.1 µM	10.9 µM (inactive)	24.2 µM (inactive)	22 µM (inactive)	47 µM (inactive)
O=C(Nn1c(-c2ccccc2)nc2ccccc2c1=O)c1ccc(Cl)cc1	> 100 µM (inactive)	> 100 µM (inactive)	45.7 µM (inactive)	> 100 µM (inactive)	91.2 µM (inactive)	> 100 µM (inactive)	> 100 µM (inactive)	> 100 µM (inactive)	84.3 µM (inactive)	> 100 µM (inactive)	56.5 µM (inactive)	> 100 µM (inactive)	> 100 µM (inactive)	> 100 µM (inactive)	> 100 µM (inactive)	> 100 µM	50.6 µM (inactive)	> 100 µM (inactive)	48.3 µM (inactive)	
COc1cccc2c1OC1(C=C2)Oc2ccccc2C(=O)N1C (stereo unspecified)	42.7 µM (inactive)	37.6 µM (inactive)	19.6 µM (inactive)	56.2 µM (inactive)	21.6 µM (inactive)	28.5 µM (inactive)	17.5 µM (inactive)	19.3 µM (inactive)	39.8 µM (inactive)	25.9 µM (inactive)	45.3 µM (inactive)	40.8 µM (inactive)	22.8 µM (inactive)	3.91 µM (inactive)	31.2 µM (inactive)	32.5 µM	19.1 µM (inactive)		40.6 µM (inactive)	31.7 µM (inactive)
Nn1c(-c2ccccc2)n[nH]c1=O	> 100 µM (inactive)	> 100 µM (inactive)	> 100 µM (inactive)	> 100 µM (inactive)	> 100 µM (inactive)	> 100 µM (inactive)	> 10 µM (inactive)	> 100 µM (inactive)	> 100 µM (inactive)	> 100 µM (inactive)	> 100 µM (inactive)	> 100 µM (inactive)	> 100 µM (inactive)	> 100 µM (inactive)	> 100 µM (inactive)	> 100 µM	> 100 µM (inactive)	80.2 µM (inactive)	> 100 µM (inactive)	> 100 µM (inactive)
O=C(NCCCCCCNC(=O)n1cc(F)c(=O)[nH]c1=O)NCCCOCCOCCOCCOCCOCCOCCOCCOCCOCCOCCOCCOCCOCCOCCOCCOCCOCCOCCOCCOCCOCCCNC(=O)C(O)C(O)C(OC1OC(CO)C(O)C(O)C1O)C(O)CO (stereo unspecified)	64.7 µM (inactive)	9.16 µM (inactive)	18.6 µM (inactive)	88.3 µM (inactive)	19.3 µM (inactive)	11 µM (inactive)	52.4 µM (inactive)	43.7 µM (inactive)	> 89.7 µM (inactive)	> 86.9 µM (inactive)	29.6 µM (inactive)	67.5 µM (inactive)	64.9 µM (inactive)	47.2 µM (inactive)	> 100 µM (inactive)	17.5 µM	87.9 µM (inactive)	35.8 µM (inactive)	27.9 µM (inactive)	15.3 µM (inactive)
[N-]=[N+]=Nc1c([N+](=O)[O-])c(=O)n2c3c(cccc13)CCC2	3.9 µM (inactive)	15.6 µM (inactive)	27 µM (inactive)	> 67.8 µM (inactive)	17.3 µM (inactive)	15 µM (inactive)	1.75 µM (inactive)	2.2 µM (inactive)	17.5 µM (inactive)	> 100 µM (inactive)	13.7 µM (inactive)	10.8 µM (inactive)	> 65.5 µM (inactive)	20.6 µM (inactive)	18.4 µM (inactive)	6.44 µM	2.08 µM (inactive)	1.62 µM (inactive)	14 µM (inactive)	6.28 µM (inactive)
Cc1ccc(S(=O)(=O)NC(=O)Nc2c(S(N)(=O)=O)cc(S(N)(=O)=O)c(Cl)c2Cl)cc1	> 100 µM (inactive)	> 100 µM (inactive)	> 100 µM (inactive)	> 100 µM (inactive)	> 100 µM (inactive)	> 100 µM (inactive)	> 100 µM (inactive)	> 100 µM (inactive)	> 100 µM (inactive)	> 100 µM (inactive)	> 100 µM (inactive)	> 100 µM (inactive)	> 100 µM (inactive)	> 100 µM (inactive)	> 100 µM (inactive)	> 100 µM	> 100 µM (inactive)	> 100 µM (inactive)	> 100 µM (inactive)	
CC(C)/C(Cl)=N\OC(=O)NNc1ccccc1	6.92 µM (inactive)	1.03 µM (active)	75.2 µM (inactive)	73.3 µM (inactive)	1 µM (active)	0.397 µM (active)	< 0.01 µM (active)		37.6 µM (inactive)	> 100 µM (inactive)	7.48 µM (inactive)	3.47 µM (inactive)		28.1 µM (inactive)	17.5 µM (inactive)	21.1 µM	12.6 µM (inactive)	15.8 µM (inactive)		0.119 µM (active)
O=S1(=O)CCN(Cc2ccccc2)/C1=N\S(=O)(=O)c1ccc(Cl)cc1	19.1 µM (inactive)	18.5 µM (inactive)	28.5 µM (inactive)	57 µM (inactive)	19.1 µM (inactive)	17.9 µM (inactive)	35.6 µM (inactive)	22.8 µM (inactive)	18 µM (inactive)	47.4 µM (inactive)	18.8 µM (inactive)	17.3 µM (inactive)	48.2 µM (inactive)	16.6 µM (inactive)	17.2 µM (inactive)	20.3 µM	14.5 µM (inactive)		17.8 µM (inactive)	19.4 µM (inactive)
O=c1[nH]/c(=C/c2ccc(OCc3ccccc3)cn2)c(=O)[nH]/c1=C/c1ccccc1	0.158 µM (active)	0.146 µM (active)	0.743 µM (active)	0.157 µM (active)	0.0434 µM (active)	0.12 µM (active)	0.141 µM (active)	0.091 µM (active)	0.119 µM (active)	0.531 µM (active)	0.465 µM (active)	0.129 µM (active)	0.107 µM (active)	0.0794 µM (active)	0.787 µM (active)	0.135 µM	0.0942 µM (active)		0.191 µM (active)	1.06 µM (active)
CSc1c(C(=O)Nc2ccc(Cl)cc2)c(N)nn1-c1ccccc1	> 100 µM (inactive)	> 100 µM (inactive)	> 35.3 µM (inactive)	> 100 µM (inactive)	> 100 µM (inactive)	> 100 µM (inactive)	> 100 µM (inactive)	> 100 µM (inactive)	61.5 µM (inactive)	19.6 µM (inactive)		> 100 µM (inactive)	> 100 µM (inactive)	> 58.7 µM (inactive)	> 100 µM (inactive)	> 100 µM	> 100 µM (inactive)	> 100 µM (inactive)	> 100 µM (inactive)	> 100 µM (inactive)
O=C(O)CN1CCN(CC(=O)O)CCN(CC(=O)O)CCN(CC(=O)O)CC1 [TETRAXETAN]	> 100 µM (inactive)	> 100 µM (inactive)	> 100 µM (inactive)	> 100 µM (inactive)	> 100 µM (inactive)	> 100 µM (inactive)	> 100 µM (inactive)	> 100 µM (inactive)	> 100 µM (inactive)		> 100 µM (inactive)	> 100 µM (inactive)	> 100 µM (inactive)	> 100 µM (inactive)	> 100 µM (inactive)	> 100 µM	> 100 µM (inactive)		> 100 µM (inactive)	> 100 µM (inactive)
Cc1ccc(-c2c(C#N)c(S)n(NS(=O)(=O)c3ccccc3)c(=O)c2C#N)cc1	29 µM (inactive)	26.9 µM (inactive)	21.2 µM (inactive)	31.5 µM (inactive)	23 µM (inactive)		33.6 µM (inactive)	16.7 µM (inactive)	24.8 µM (inactive)	66.5 µM (inactive)	34.4 µM (inactive)	29.9 µM (inactive)	34 µM (inactive)	13.2 µM (inactive)	28.2 µM (inactive)	21.7 µM	19.5 µM (inactive)	35.7 µM (inactive)	23.9 µM (inactive)	38.5 µM (inactive)
COCn1cnc2c(=O)nc(SC)n(-c3ccccc3)c21	> 100 µM (inactive)	> 100 µM (inactive)	> 100 µM (inactive)	> 100 µM (inactive)	> 100 µM (inactive)	> 100 µM (inactive)	> 100 µM (inactive)	> 100 µM (inactive)		> 100 µM (inactive)	> 100 µM (inactive)	> 100 µM (inactive)	> 100 µM (inactive)	> 100 µM (inactive)	> 100 µM (inactive)	> 100 µM	> 100 µM (inactive)	> 100 µM (inactive)	> 100 µM (inactive)	> 100 µM (inactive)
COC(=O)C(=O)C(C(=O)C(=O)Nc1nnc(S)[nH]1)c1nc2ccc([N+](=O)[O-])cc2nc1O (stereo unspecified)	> 100 µM (inactive)	> 100 µM (inactive)	> 100 µM (inactive)	44.7 µM (inactive)	> 100 µM (inactive)	> 100 µM (inactive)	57.8 µM (inactive)	> 100 µM (inactive)	> 100 µM (inactive)	> 100 µM (inactive)	> 100 µM (inactive)	> 100 µM (inactive)	> 100 µM (inactive)	> 100 µM (inactive)	> 100 µM (inactive)	> 100 µM	> 100 µM (inactive)	> 100 µM (inactive)	> 100 µM (inactive)	
